Source: patent US4061779A, “Naphthalene derivatives having anti-inflammatory activity” (Beecham Group Limited, priority 1973, dated 1977)
Read-outs that look alike come from different tables or passages of the source. Each block holds one molecule with its values, some of them ahead of it.

Assays:
Rat Paw Carrageenin = assay: standard Rat Paw Carrageenin Test, anti-inflammatory activity; format: in vivo
Description: (§1) Using a conventional Allen-Doisy Test, the Oestrogenic activity of certain compounds of the invention was ascertained. The anti-inflammatory activity of certain compounds of the invention was ascertained by using a standard Rat Paw Carrageenin Test.

oestrogenicity [1] = assay: Allen-Doisy Test, oestrogenic activity (mouse); format: in vivo
Description: as §1

oestrogenicity [2] = assay: Allen-Doisy Test, oestrogenic activity (rat); format: in vivo
Description: as §1

UV Induced Erythrema = UV Induced Erythrema in Guinea Pigs; format: in vivo, guinea pig; conditions: Cavia porcellus, po
Description: b. UV Induced Erythrema in Guinea Pigs

[3] = system: cultured mouse peritoneal macrophages; assay: Macrophage Plasminogen Activator Release Test; format: cell-based; conditions: 1 mg/ml
Description: e. Macrophage Plasmongen Activator Release Test
On the test system of J. D. Vassalli et al., Cell, 8, 271-281 (1976), the compound […] caused 90% inhibition of the release of plasmogen activator from cultured mouse peritoneal macrophages.

endometrium = assay: Gestagenic Activity in Rabbits (Clauberg test); format: in vivo, rabbit; conditions: 200 mg/kg p.o., 4 days
Description: k. Gestagenic Activity in Rabbits

[4] = system: Carrageenin Induced Oedema; assay: Carrageenin Induced Oedema in Rats; format: in vivo, rat
Description: a. Carrageenin Induced Oedema in Rats

gastro intestinal tract = assay: Long term toxicity tests, gastro-intestinal tolerance; format: in vivo, rat; conditions: 180 mg/kg p.o. for 28 days
[5] = system: gastric erosions or ulceration; assay: Ulcerogenic Activity in Rats; format: in vivo, rat; conditions: 250 or 500 mg/kg p.o.
Description: m. Ulcerogenic Activity in Rats.

[6] = system: Phenyl-p-quinone Induced Writhing; assay: Phenyl-p-quinone Induced Writhing in Mice; format: in vivo; conditions: Mus musculus, po, read-out: ED50 for analgesic activity
Description: f. Phenyl-p-quinone Induced Writhing in Mice

[7] = system: release of corticosteroids from the adrenal gland; assay: Interactions with the Adrenal/Pituitary Axis; format: in vivo; conditions: 140 mg/kg p.o./day, five days
Description: h. Interactions with the Adrenal/Pitutary Axis

uterine weight = assay: Oestrogenic Test in Rats (ovariectomised rats, uterine weight); format: in vivo, rat; conditions: 200 mg/kg p.o. and 600 mg/kg p.o., 4 days
Description: i. Oestrogenic Test in Rats

[8] = General statements on gastro-intestinal irritation, oestrogenicity and anti-inflammatory activity; format: in vivo
[9] = system: Cotton Pellet Induced Granuloma; assay: Cotton Pellet Induced Granuloma in Rats; format: in vivo, rat; conditions: 50 mg/kg p.o., day 0 to 5 days
Description: c. Cotton Pellet Induced Granuloma in Rats
Consistent activity (reducing induced granuloma by more than 30%) has been observed at 50 mg/kg p.o. dosed from day 0 to 5 days.

[10] = system: gastric secretion / gastric damage; assay: Gastric Damage in Pyloric Ligated Rats; format: in vivo; conditions: up to 200 mg/kg intra-duodenally, pyloric ligated rat
Description: 1. Gastric Damage in Pyloric Ligated Rats

Adjuvant arthritis = assay: Adjuvant Arthritis in Rats; format: in vivo, rat; conditions: 60 mg/kg p.o. daily
Description: d. Adjurant Arthritis in Rats
Adjuvant arthritis is reduced in rats by the daily administration of doses of 60 mg/kg p.o.

[11] = system: seminal vesicles, prostate gland or levator ani muscles; assay: Anabolic/Androgenic Activity in Rats; format: in vivo, rat; conditions: 200 mg/kg p.o.
Description: j. Anabolic/Adrogenic Activity in Rats

[12] = system: pyresis induced by Shigella endotoxin; assay: Anti-pyretic Effect in Rabbits; format: in vivo, rabbit; conditions: doses down to 100 mg/kg p.o.
Description: g. Anti-pyretic Effect in Rabbits

Compound: COc1ccc2cc(CCC(C)=O)ccc2c1 [4-(6'-methoxy-2'-naphthyl)butan-2-one]
ED50 (UV Induced Erythrema): 9 to 15 mg/kg | inhibition of the release of plasminogen activator [3]: slight inhibition | uterine hypertrophy or progestational changes in the endometrium (endometrium): did not result in uterine hypertrophy or progestational changes in the endometrium | reduction in induced oedema volume ([4]; 5, 10, 35 and 70 mg/kg p.o.): significant reduction | ED25 ([4]; Rattus norvegicus, po, rats): 7 to 10 mg/kg | Activity in adrenalectomised rats ([4]; adrenalectomised rats): Activity is maintained | gastro intestinal tolerance (gastro intestinal tract): well tolerated | gastric erosions, longer contact times ([5]; longer than 4 hours): in some cases to some degree of erosions | gastric erosions or ulceration ([5]; rats starved 18 hours, 1 or 4 hours after dosing): did not give rise to gastric erosions or ulceration | ED50 ([6]; mice): ~110 mg/kg | interference with release of corticosteroids in response to ACTH administration or to ether stress [7]: does not interfere | increase in uterine weight (uterine weight): did not result in any increase in uterine weight | oestrogenic effects or gastric-irritant effects ([8]; at the therapeutic dose): not causing either oestrogenic effects or pronounced gastric-irritant effects | anti-inflammatory activity ([8]; general statement): good spectrum of anti-inflammatory activity | anti-pyretic and analgesic activity ([8]; general statement): anti-pyretic and analgesic activity | hormone like activity ([8]; general statement): free of hormone like activity | therapeutic ratio based on gastro intestinal irritancy ([8]; general statement): good therapeutic ratio | changes in body weight or in weight of spleen, thymus, kidney, liver or adrenal glands [9]: not accompanied by marked changes | overt gastric damage [10]: nor did overt gastric damage result | systemically mediated effect on the volume of gastric secretion [10]: have not been found to have a systemically mediated effect | Adjuvant arthritis (Adjuvant arthritis): reduced | increase in weight of seminal vesicles, prostate gland or levator ani muscles ([11]; 4 days, castrated young male rats): did not result in any increase | interference with androgenic/anabolic activity of concomitantly administered testosterone ([11]; testosterone 1 mg/kg s.c.): did not interfere | reduction of pyresis induced by intravenous Shigella endotoxin [12]: reduced pyresis

Compound: CC(=O)Oc1ccccc1C(=O)O [ASPIRIN, acetylsalicylic acid, reference compound]
ED50 [6]: ~60 mg/kg

Compound: COc1ccc2cc(/C(C)=C/C(C)=O)ccc2c1 [trans-4-(6'-methoxy-2'-naphthyl)-pent-3-ene-2-one]
Anti-inflammatory, rat carrageenan (Rat Paw Carrageenin; 100 mg/kg orally): Active | Oestrogenicity, Allan-Doisy test (oestrogenicity [1]; 100 mg/kg sub.cut.): Inactive

Further lines, with some results ahead:

Oestrogenicity, Allan-Doisy test (oestrogenicity [1]; 50 mg/kg sub.cut.): Inactive | Oestrogenicity, Allan-Doisy test (oestrogenicity [2]; 600 mg/kg orally): Inactive
Compound: COc1ccc2cc(C(C)C(C)=O)ccc2c1 (centres unmarked) [3-(6'-methoxy-2'-naphthyl)-butan-2-one, 3-(6'-methoxy-2'-napthyl)-butan-2-one]
Anti-inflammatory, rat carrageenan (Rat Paw Carrageenin; 100 mg/kg orally): Active

Oestrogenicity, Allan-Doisy test (oestrogenicity [1]; 50 mg/kg sub.cut.): Active
Compound: CCC(c1ccc2cc(OC)ccc2c1)C(C)(O)C(C)=O (centres unmarked) [3-hydroxy-3-methyl-4-(6'-methoxy-2'-naphthyl)-hexan-2-one]
Anti-inflammatory, rat carrageenan (Rat Paw Carrageenin; 100 mg/kg orally): Inactive

Oestrogenicity, Allan-Doisy test (oestrogenicity [1]; 100 mg/kg sub.cut.): Active
Compound: COc1ccc2cc(C(C)C(C)(O)C(C)=O)ccc2c1 (centres unmarked) [3-hydroxy-3-methyl-4-(6'-methoxy-2'-naphthyl)-pentan-2-one]
Anti-inflammatory, rat carrageenan (Rat Paw Carrageenin; 50 and 100 mg/kg orally): Active

Oestrogenicity, Allan-Doisy test (oestrogenicity [2]; 200 mg/kg orally): Inactive | Oestrogenicity, Allan-Doisy test (oestrogenicity [2]; 300 mg/kg orally): Active
Compound: COc1ccc2cc(C(C)CC(C)=O)ccc2c1 (centres unmarked) [4-(6'-methoxy-2'-naphthyl)-pentan-2-one]
Anti-inflammatory, rat carrageenan (Rat Paw Carrageenin; 50 mg/kg orally): Slightly Active | Anti-inflammatory, rat carrageenan (Rat Paw Carrageenin; 100 mg/kg orally, 1 hr. after dosing): Active | Anti-inflammatory, rat carrageenan (Rat Paw Carrageenin; 300 mg/kg orally): Active

Oestrogenicity, Allan-Doisy test (oestrogenicity [2]; 300 mg/kg orally): Inactive
Compound: COc1ccc2cc(C=CC(C)=O)ccc2c1 [4-(6-Methoxy-2-naphthyl)-3-buten-2-one]
Anti-inflammatory, rat carrageenan (Rat Paw Carrageenin; 300 mg/kg orally): Active
